The text below walks through data of US20070099822A1, “Regulation of tissue mineralization and phosphate metabolism by asarm peptides” (priority 2003, published 2007).

Like-named read-outs stand apart in the source and are kept apart here. Ends that are not written are not given here.

One assay has as its system Male ICR-Swiss mice. As to the kind of experiment: Intraperitoneal administration of Hu-MEPE and PTH (1-34) into mice, serum and urine assays. The assay is classed as in vivo. As for the experimental part: Intraperitoneal administration of Hu-MEPE and PTH (1-34) into mice. Male ICR-Swiss mice were used as recipients for intraperitoneal administration (100 μl) of 0.1% phosphate-buffered saline/0.1% bovine serum albumin (vehicle) and experimental conditions (Hu-MEPE and PTH 1-34) dissolved in 100 μL of vehicle. Two separate (repeat) experiments were conducted consisting of four groups with 6 and 7 animals per group. The control group was administered with 100 μL of vehicle (Group-1). Group-2 consisted of animals administered with 0.8 μg/injection of parathyroid hormone (PTH 1-34). Group 3 were injected with 0.4 μg/injection of Hu-MEPE and Group-4 with 4 μg/injection of Hu-MEPE. On day one, three bolus injections were given at 0, 3 h, and 6 h. Serum samples were then collected via retro-orbital bleed one hour after the 6 h bolus administration. The next day or 30 hours after the first bolus a fourth bolus (same amount) was given and after 1 h the animals were sacrificed and serum prepared after cardiac exsanguination. The total amounts of PTH and MEPE administered over the 30 h were 80 μg/kg/30 h PTH 1-34, 40 μg/kg/30 h Hu-MEPE (MEPE-40) and 400 μg/kg/30 h Hu-MEPE (MEPE-400). Each group was placed in a separate metabolic cage and urine was collected for the 6-hour period. After the first 6-hour urine collection mice were replaced in thoroughly cleaned metabolic cages for the remaining 24 hours. The second 24-hour urine was collected immediately after the animals were sacrificed. The urine volumes for the second and first collections were measured. Collecting urine samples from large numbers of small mice over the time frame of the experiment was not feasible. Therefore, urine samples from each group (n=7) were pooled and volumes measured via a specially designed collecting duct in the metabolic cage. To ensure reproducibility the experiment was repeated twice (the same changes occurred). To calculate the fractional excretion of phosphate (FEP) the following equation was used: 100−(100×(1−(A/B))) where A=(urine phosphorus in mg/dL)×(serum creatinine in mg/dL) and B=(urine creatinine in mg/dL)×(serum phosphorus in mg/dL). To calculate renal phosphorus clearance (RPC) in mL/minute following computation was used: (urine phosphorus in mg/dL)×(urinary volume in mL)/((serum phosphorus in mg/dL)×(time of collection in minutes)). The phosphate excretion index (PEI) was calculated using the same method described by Shimada et al. (Cloning and characterization of FGF23 as a causative factor of tumor-induced osteomalacia, Proc Natl Acad Sci USA 98:6500-6505, 2001) using the following formula: ((urinary concentration of phosphorus in mg/dL)/(serum concentration of phosphorus in mg/dL))/(total urinary creatinine in mg).
Serum and urine assays. Serum and urine assays for phosphate, calcium, chloride, potassium, creatinine, glucose and alkaline phosphatase were accomplished using 96 well format KC4-spectrophotometer multiplate kinetic/end-point analyses using routine methods and diagnostic-kits Sigma-Diagnostics). Serum 1,25-dihydroxy vitamin-D3 levels were estimated using the method of Reinhardt, et al. (A microassay for 1,25-dihydroxyvitamin D not requiring high performance liquid chromatography: application to clinical studies, J Clin Endocrinol Metab 58:91-98, 1984). Analysis of data for fractional excretion of phosphate (FEP) was carried out following the same method described previously by Shimada et al. (Mutant FGF-23 responsible for autosomal dominant hypophosphatemic rickets is resistant to proteolytic cleavage and causes hypophosphatemia in vivo, Endocrinology 143:3179-82, 2002) for FGF23 bolus administration studies and by Nesbitt et al. (Crosstransplantation of kidneys in normal and Hyp mice: Evidence that the Hyp mouse phenotype is unrelated to an intrinsic renal defect, J Clin Invest 89:1453-59, 1992) for renal cross-transplantation experiments in Hyp mice.
Statistical methods. […]

The test system of assay [1] is Na+ dependent phosphate co-transport in primary human renal proximal tubule epithelial cells (RPTEC). As to the kind of experiment: 33PO4 uptake scintillation proximity assay (SPA) in RPTEC. The assay is classed as cell-based. Here is the method: (§1) Measurement of ^33PO4 uptake and ^14C-α-methyl D-glucose uptake. A novel technique, scintillation proximity assay (SPA), was used to measure ^33PO4 uptake in-vitro. Human renal proximal-tubule primary cells (RPTEC) were purchased from Clonetics-Biowhittaker (Walkersville, Md.) (cat. no. CC2553) and were cultured and subcultured using the manufacturers recommended protocols, methods, buffers and media (cat. nos. CC3190, CC5034). Also a human renal cell-line (Hu-CL8) was cultured as previously described (Rowe et al. Candidate 56 and 58 kDa protein(s) responsible for mediating the renal defects in oncogenic hypophosphatemic osteomalacia. Bone 18(2):159-169, 1996). For ^33PO4-uptake measurement cells were grown in REBM media supplemented with 5% fetal calf serum (REBM-FCS) to 80% confluence (Clonetics-Biowhitaker, Walkersville, Md.: cat. nos. CC2553, CC3190 and CC5034) and seeded into 96 well (3000 cells/well) cytostar-T scintillating-microplates (Amersham-Pharmacia Biotech, Piscataway, N.J.: cat. no. RPNQ 0162). Cells were then cultured in 200 μL of REBM-FCS media for 24 h. Media was then replaced with serum free media (REBM) and the cells incubated for a further 3-4 h with Hu-MEPE, PTH (1-34) or media control respectively in REBM media. The concentrations of PTH (1-34) and Hu-MEPE were […] and each experimental dose was repeated eight times for statistical analysis. Following incubation media was removed and replaced with either phosphate uptake buffer (PUB) consisting of 150 mM NaCl/1 mM Cacl2/1.8 mM MgSO4/10 mM HEPE pH 7.0/0.1 mM phosphate buffer pH 7.0 and 3 uCi mL^−1 33P as orthophosphoric acid (18 MBq/mL or 5775.7 Gbq/mg stock solution Perkin Elmer, Wellesley, Mass.: cat. no. NEZ080). In order to determine the Na-dependent phosphate co-transporter activity a separate set of control cells were incubated with the same buffer but with choline chloride (150 mM) substituted for NaCl (CHUB buffer). After 10 min at 37° C. the reaction was terminated by removing the PUB and CHUB buffers and replacing with STOP buffer (CHUB buffer without radioisotope). The cytostar scintillation plates were then directly assayed for counts (CPM) using a Hewlett-Packard (Palo Alto, Calif.) Multiplate Top-counter calibrated for ^33P SPA assay. Due to the unique design of the 96 well cytostar-plate radioactive decay in solution is not detected by the counter. In contrast, radioisotope attached to or taken into the cells initiates release of plastic-scintillant photons that are detected by the top-counter photo-multiplier tube. Thus, no washes are required and direct CPM can be counted in living cells. Following CPM determination the buffers were removed from the living cells and fresh media supplemented with cell-titre-96 (Promega-Biotech, Madison, Wis.: cat. no. G5421) cell-number detection media. Cells were then further incubated at 37° C. for 4 h. Conversion of a tetrazolium salt to a colored formazan product by living cells was then measured at 490 nm using a 96 well multi-well spectrophotometer with KC-4 software (absorbance at 490 nm is directly proportional to the number of living cells). Na-dependent ^33P uptake was then calculated by subtracting background counts and the choline chloride non Na-dependent ^33P uptake and results expressed as ^33PO4 femtomoles/10^4-cells/6 min. […]
Background: Scintillation proximity formats need no separation of bound from free tracer.

Assay [2] has as its system Na+ dependent phosphate co-transport in human renal proximal tubule cell-line (Hu-CL8). As to the kind of experiment: 33PO4 uptake scintillation proximity assay (SPA) in Hu-CL8. The assay is classed as cell-based. Particulars: Hu-CL8. Here is the method:
as §1, with “After 10 min at 37° C. the reaction was terminated by removing the PUB and CHUB buffers and replacing with STOP buffer (CHUB buffer without radioisotope). The cytostar scintillation plates were then directly assayed for counts (CPM) using a Hewlett-Packard (Palo Alto, Calif.) Multiplate Top-counter calibrated for ^33P SPA assay.” left out, “Following CPM determination the buffers were removed from the living cells and fresh media supplemented with cell-titre-96 (Promega-Biotech, Madison, Wis.: cat. no. G5421) cell-number detection media. Cells were then further incubated at 37° C. for 4 h.” left out

Assay [3] concerns the target rabbit polyclonal antibodies raised against ASARM-peptide (SEQ ID NO. 5). As to the kind of experiment: competitive chemiluminescent ELISA: anti-ASARM polyclonal on protein-G plates, 0.5 ng/mL biotinylated ASARM-peptide as competitor, one site binding hyperbola of % quenching.
Assay [4] has the same target. As to the kind of experiment: competitive chemiluminescent ELISA: anti-ASARM polyclonal on protein-G plates, 0.5 ng/mL biotinylated ASARM-peptide as competitor. For orientation: In an ELISA, binding on a coated surface is turned into a signal by an enzyme label.

In the case of “PTH (1-34): parathyroid hormone (PTH 1-34), used as a positive control (SVSEIQLMHNLGKHLNSMERVEWLRKKLQDVHNF; Parathyroid hormone; UniProt P01270 32-65, looked up, fragment) [reference compound]”, the “fractional excretion of phosphate (FEP)” value is given as 27.4% in the assay with Male ICR-Swiss mice (7 h, PTH 80 ug/kg/30 h, vehicle 7.8%) and 53.3% in the assay with Male ICR-Swiss mice (31 h, PTH 80 ug/kg/30 h, vehicle 28.7%). Besides, the urine phosphate in the assay with Male ICR-Swiss mice (7 h, PTH 80 ug/kg/30 h i.p., vehicle 31.8) came out at 61.6 mg/dL; in the assay on Male ICR-Swiss mice (31 h second urine, PTH 80 ug/kg/30 h, vehicle 175.9) it was 238.3 mg/dL. The serum alkaline phosphatase in the assay on Male ICR-Swiss mice (31 h, PTH 80 ug/kg/30 h, vehicle 65.06) came to 46.3 U/L. In the assay on Male ICR-Swiss mice (31 h, PTH 1-34 80 ug/kg/30 h, pooled, vehicle 25.2), the “serum 1,25-dihydroxy vitamin-D3” value was determined as 61.2 pg/mL. This molecule also gave a serum phosphate in the assay on Male ICR-Swiss mice (31 hours, PTH 80 ug/kg/30 h i.p., vehicle 11.94) of 8.32 mg/dL. The “serum phosphate vs vehicle” value in the assay on Male ICR-Swiss mice (after 7 hours, i.p., PTH and MEPE animals) was “no significant differences”. Further, the “serum calcium vs vehicle” value in the assay on Male ICR-Swiss mice (after 7 hours, PTH 80 ug/kg/30 h, low Hu-MEPE dose) is given as “significantly elevated”. Further, in the assay on Male ICR-Swiss mice (after 31 hours, PTH), the “urine calcium vs Hu-MEPE and vehicle” value is on record as “significantly hypocalciuric”. In addition, the “inhibition of Na+ dependent phosphate co-transport” value is given as “Dose dependent inhibition” in assay [1], “dose-dependent inhibition” in assay [1] (listed as PTH) and “Dose dependent inhibition” in assay [2].

In assay [3], RDDSSESSDSGSSSESDGD (not fully specified) returned a Kd of 7.5 ng/mL. In assay [4], this molecule gave a Qmax (quench maximum) of 98.7%.

A word on the Kd: it is the concentration at which binding is half-saturated. Low values mean higher affinity, high ones lower affinity.
